# Legend:
# T. cruzi [1] = experiment: T. cruzi epimastigote (EPI) in-vitro screen; assay type: cell-based
# T. cruzi [2] = experiment: T. cruzi intracellular amastigote (AM) in-vitro screen; assay type: cell-based
# T. cruzi [3] = experiment: T. cruzi mouse model, in-vivo
# Excerpt: (§1) In-vitro and in-vivo models were used to test activities of a selection of many compounds. Those activities are summarized in Tables 1-3, showing variation between systems and species. Activities measured in the MP mo and HM mo models have shown the best correlation with results obtained in hamster and mouse models.
# T. cruzi [4] = experiment: T. cruzi trypomastigote (TRY) in-vitro screen; assay type: cell-based
# B lymphocytes = experiment: Lymphocyte blastogenesis assay, B lymphocytes (PWM); assay type: cell-based, human
# Procedure: (§2) T and B lymphocytes from normal human donors were incubated for 30 minutes at various dose levels of the compounds indicated. The lymphocytes were added in triplicate wells in gentamicin and phytohemagglutinin (PHA) (a T cell mitogen), pokeweed mitogen (PWM) (a B cell mitogen) and allogeneic mononuclear cells (mixed leukocyte cultures; MLC) or media containing the above additives. The lymphocyte blastogenesis assay is described in detail below.
# (§3) The data are represented as the mean of the three replicates. The results are presented in Charts la(e) (i) and la(e) (ii) (Figs. 1 and 2). […] A reduction of both T lymphocytes' abilities to proliferate was obtained when 100 u.M or greater concentrations of IPA was added to the cell cultures. Proliferative activity of T lymphocytes by 25% at the 30 u.M concentration of IPA in the experiment.
# (§4) • 1. Mononuclear cells are separated from whole blood by differential centrifugation using a synthetic separation medium, or are thawed from a cryopreserved preparation. The cells are washed and resuspended in media (RPMI - 1640, L-Glutamine 2mM, Herpes Buffer 25mM, Gentamicin 50 ug/ml, Human AB Serum-heat inactivated (56°, 30°) 20%). • 2. A viable cell count is determined. • 3. Cell concentration is adjusted to 2 x 10^6 /ml in media. • 4. The cell suspension is added to wells of a 96-well flat bottom plate in 0.1 ml aliquots (2 x 10^5 cells). • 5. The selected mitogens and/or antigens (in media without serum) are added to the cells in the wells also in 0.1 ml aliquots. • 6. The cultures are incubated for 3-7 days (depending upon the mitogen or antigen) at 37° C in a humidified 5% C02 atmosphere. • 7. Six to eight hours before termination of cultures 0.05 ml (1 µCi) of ^3HTdR sp. act 6.7 Ci/mM (20 µCi/ml stock) is added to each well. • 8. At termination of cultures the cells are harvested onto strips of scintillation-grade fibreglass paper using a multiple sample harvester. • 9. Perforated disks from the fibreglass paper of the harvested cultures are placed each into scintillation vials to which is then added 5 ml of toluene based scintillation cocktail. • 10. The vials are counted in a liquid scintillation counter for one minute where the amount of incorporated ^3HTdR is determined.
# (§5) net CPM = xCPM of mitogen/antigen cultures - xCPM of media cultures.
# T lymphocytes = experiment: Lymphocyte blastogenesis assay, T lymphocytes (PHA); assay type: cell-based, human; conditions: 100 - 1 µM (Figs. 11 and 12)
# Procedure: as §2, §3, §4, §5
# HIV-I = experiment: Experiment la(a): macrophage cells, HIV-I, p24 antigen capture radio-immunoassay; assay type: cell-based; conditions: for TITER: control titer 100000; for wells positive for HIV-I p24, LOG VIRUS DILUTION -1 / wells positive for HIV-I p24, LOG VIRUS DILUTION -2 / wells positive for HIV-I p24, LOG VIRUS DILUTION -3 / wells positive for HIV-I p24, LOG VIRUS DILUTION -4 / wells positive for HIV-I p24, LOG VIRUS DILUTION -5 / wells positive for HIV-I p24, LOG VIRUS DILUTION -6: duplicate runs
# Procedure: Fresh macrophage cultures were obtained by incubation of mononuclear cells obtained from a leukopak directly in the wells of a microtiter plate having 6 wells per row. After removal of non-adherent cells, each row of the adherent macrophages was infected with 10-fold serial dilutions of HIV-I, with the use of polybrene to enhance uptake of the virus. After one to two hours, the virus inoculum was removed and replaced with fresh normal growth medium. The fresh medium for each row contained a particular concentration of AZT, dideoxy cytidine (ddC), or compound la, as indicated by the left-hand column of Table la(a). The first row of wells acted as a control, and to it was added fresh medium containing none of the three drugs. Medium levels were maintained for two to four weeks to allow replication of the virus to take place, with at least one complete fluid change to remove residual virus inoculum. The contents of each well were then tested for the level of HIV p24 antigen present using a commercially available antigen capture kit employing a radio-immunoassay which can detect as little as 10'^9gm of p24 present in a sample. The above procedure was done in duplicate runs.
# The results were interpreted as follows: 2/2, for example, means that both the corresponding wells of both runs were positive for HIV-I p24, while 0/2 means that neither well was positive. The titers are given in the next to last column; where 1/2 wells was positive, an intermediate value was given to the titer that is half way between the two dilutions when calculated on a logarithmic scale. 3 µM IPA was positive in both wells at a dilution of 1/10,000 and in neither well at 1/100,000. Thus, one half log interval between 10^4 and 10^5 is 10^4.5, or 30,000.
# [5] = system: T.b. brucei, T.b. gambiense and T.b. rhodesiense; experiment: Cultivated bloodstream trypomastigote (TRY) in-vitro screen; assay type: cell-based
# Excerpt: Culture systems developed in the last decade have used mammalian cell feeder layers to support the growth of dividing populations of bloodstream trypomastigotes of T. brucei spp. Some of these systems have been used in chemotherapy studies, including; (1) bovine fibroblast culture - T. brucei models to test some standard and experimental compounds, (2) murine bone marrow culture - T.b. gambiense model to screen inosine analogues and platinum and hypolipidemic compounds, and (3) Microtus embryonic fibroblast culture (MEF) - T.b. rhodesiense model to test standard and experimental drugs. These systems give a good indication of in-vivo activity (see Table 3). They measure activity against dividing cells rather than specific macromolecular synthesis pathways and can be readily established in micro-titre plates. The MEF and bone marrow cell feeder layers can be used to grow a range of strains of T. brucei spp., offering the possibility of examining variations in drug susceptibility and resistance between strains. The presence of a feeder layer, however, limits the opportunities for the automation of these systems.
# as §1
# [6] = system: T.b. brucei, T.b. gambiense and T.b. rhodesiense; experiment: African trypanosomiasis mouse model, in-vivo
# Procedure: (§6) Primary screening for new trypanocides has made extensive use of rodent systems, in which host survival time is a simple indicator of drug activity. In-vitro screens have used a variety of trypomastigote types (see Table 3, below). […] Most early in-vitro screens employed a short test in which bloodstream trypomastigotes were isolated from an infected rodent and maintained for up to 24 h in a simple drug-containing media. Two significant modifications of this technique include maintaining isolated bloodstream trypomastigotes in drug-containing media for 3-4 hours at 37° C in micro-titre plates and their subsequent viability assessed by the uptake of radiolabelled precursors or motility and infectivity to mice.
# as §1
# [7] = system: T.b. brucei, T.b. gambiense and T.b. rhodesiense; experiment: Isolated bloodstream trypomastigote (TRY) in-vitro screen; assay type: cell-based
# Procedure: as §6
# In-vitro studies on isolated bloodstream trypomastigotes were also used in the rational biochemical approaches towards the chemotherapy of T. brucei infections involving inhibitors of carbohydrate catabolism salicyl hydroxamic acid plus glycerol), of polyamine synthesis (methylgyoxal bis-guanylhydrazone and - DFMO), and of surface coat glycoprotein synthesis (Tunicamycin). In these studies, activity of the compounds are shown in-vitro and in-vivo, whereas the sensitivity of isolated bloodstream trypomastigotes to toxic oxygen radicals generated by naphthoquinones was not shown by the parasites in mice. The activity of the standard anti-trypanosomals-melarsoprol, pentamidine and suramin and tested compounds according to the present invention in in-vitro systems is shown in Table 3.
# as §1
smiles,measurement,setting,value
"O=C(Cn1ccnc1[N+](=O)[O-])NCc1ccccc1 [Benznidazole, benznidazole, reference compound]","activity, EPI",T. cruzi [1]; T. cruzi strain MR,"++(Y,MR, Sonya)"
same,"activity, EPI",T. cruzi [1]; T. cruzi strain Sonya,"++(Y,MR, Sonya)"
same,"activity, EPI",T. cruzi [1]; T. cruzi strain Y,"++(Y,MR, Sonya)"
same,"activity, intracellular AM",T. cruzi [2]; T. cruzi strain Sonya,"++(Y,Sonya)"
same,"activity, intracellular AM",T. cruzi [2]; T. cruzi strain Y,"++(Y,Sonya)"
same,"activity, mouse model",T. cruzi [3]; T. cruzi strain Sonya,+
same,"activity, mouse model",T. cruzi [3]; T. cruzi strain Y,++
same,"activity, TRY",T. cruzi [4]; T. cruzi strain Sonya,"++(Y,Sonya)"
same,"activity, TRY",T. cruzi [4]; T. cruzi strain Y,"++(Y,Sonya)"
"Nc1ccn([C@H]2CC[C@@H](CO)O2)c(=O)n1 [ddC, dideoxycytidine, reference compound]",reduction in B lymphocyte proliferative responses,B lymphocytes; 1 µM,20 -35%
same,reduction in B lymphocyte proliferative responses,B lymphocytes; 1000 u.M,80 to 85%
same,reduction in T lymphocyte function,T lymphocytes,10 - 25%
same,activity at 10 µM,"HIV-I; Human immunodeficiency virus 1, Macrophage, drug 10 μM, titer relative to control, read-out: PERCENT OF CONTROL",10%
same,activity at 100 µM,"HIV-I; Human immunodeficiency virus 1, Macrophage, drug 100 μM, titer relative to control, read-out: PERCENT OF CONTROL",3%
same,TITER,HIV-I; drug 10 μM,10000
same,"wells positive for HIV-I p24, LOG VIRUS DILUTION -1",HIV-I; drug 10 μM,2/2
same,"wells positive for HIV-I p24, LOG VIRUS DILUTION -2",HIV-I; drug 10 μM,2/2
same,"wells positive for HIV-I p24, LOG VIRUS DILUTION -3",HIV-I; drug 10 μM,2/2
same,"wells positive for HIV-I p24, LOG VIRUS DILUTION -4",HIV-I; drug 10 μM,1/2
same,"wells positive for HIV-I p24, LOG VIRUS DILUTION -5",HIV-I; drug 10 μM,0/2
same,"wells positive for HIV-I p24, LOG VIRUS DILUTION -6",HIV-I; drug 10 μM,0/2
same,TITER,HIV-I; drug 100 μM,3000
same,"wells positive for HIV-I p24, LOG VIRUS DILUTION -1",HIV-I; drug 100 μM,2/2
same,"wells positive for HIV-I p24, LOG VIRUS DILUTION -2",HIV-I; drug 100 μM,2/2
same,"wells positive for HIV-I p24, LOG VIRUS DILUTION -3",HIV-I; drug 100 μM,2/2
same,"wells positive for HIV-I p24, LOG VIRUS DILUTION -4",HIV-I; drug 100 μM,0/2
same,"wells positive for HIV-I p24, LOG VIRUS DILUTION -5",HIV-I; drug 100 μM,0/2
same,"wells positive for HIV-I p24, LOG VIRUS DILUTION -6",HIV-I; drug 100 μM,0/2
"Nc1nc(N)nc(Nc2ccc([As]3SCC(CO)S3)cc2)n1 (stereo not shown) [Melarsoprol, melarsoprol, reference compound]","activity, cultivated bloodstream TRY",[5],+ +
same,"activity, mouse model",[6],+ +
same,"activity, isolated bloodstream TRY",[7],+ +

# — EP0462621A2, “Use of particular compounds for manufacture of pharmaceutical formulations for treatment against various parasites, mycoplasmas, other indications and other infections” (Prendergast, Patrick Thomas, priority 1990, dated 1991)
